Values quoted from earlier work, collected in US5691307A, “O^6 -substituted guanine compositions and methods for depleting O^6” (The United States of America as represented by the …, priority 1994, dated 1997).
Entries after “also recorded” stand apart in the source; their conditions may differ.

How the values were obtained:
[1] = tested on: human tumor xenografts; conditions: nude mice bearing human tumor xenografts; cited from earlier work
[2] = tested on: human colon cancer cells (HT29); conditions: HT29, in vitro; cited from earlier work
[3] = tested on: melanoma cells (M19-mel); conditions: in vitro; cited from earlier work
[4] = athymic mice; cited from earlier work
[5] = tested on: D245MG, a human glioma xenograft; conditions: sc D245MG, cited from earlier work
[6] = tested on: prostate tumors; conditions: cited from earlier work
[7] = tested on: AGT; conditions: cited from earlier work
[8] = tested on: intracranial (ic) xenografts of D341MED; conditions: athymic mice; cited from earlier work
[9] = tested on: malignant glioma cells (SF767); conditions: SF767, in vitro; cited from earlier work
[10] = tested on: D341MED, a human medulloblastoma xenograft; conditions: sc D341MED, cited from earlier work
[11] = tested on: AGT activity of D341MED xenograft tumors; conditions: i.p., sc D341MED; cited from earlier work
[12] = tested on: tumor cells; conditions: cited from earlier work

SMILES: Nc1nc(OCc2ccccc2)c2nc[nH]c2n1 [O^6 -benzylguanine]
- therapeutic effectiveness of chloroethylating nitrosoureas after pretreatment [1]: dramatic increase in the therapeutic effectiveness of chloroethylating nitrosoureas in vivo
- sensitivity to chloroethylating and methylating anti-tumor drugs [2]: increase the sensitivity
- sensitivity to chloroethylating and methylating anti-tumor drugs [3]: increase the sensitivity
- toxicity of BCNU after O^6-benzylguanine pretreatment [4]: increased the toxicity of BCNU significantly
- therapeutic effect, higher doses of O^6-benzylguanine ([5]; with BCNU): greater therapeutic effect
- therapeutic effect of combination regimens vs equitoxic dose of BCNU alone [5]: None of the combination regimens, however, were as effective as an equitoxic dose of BCNU alone
- therapeutic effect, O^6-benzylguanine 1 hour prior to BCNU [5]: significantly greater effect than was seen with BCNU treatment alone
- anti-tumor effect of BCNU after O^6-benzylguanine pretreatment ([6]; prostate cancer): enhanced
- regression in tumor growth ([6]; rats bearing prostate tumors, O^6-benzylguanine one hour prior to BCNU, or BCNU alone at equal dose): regression in tumor growth
- potency as AGT depleter [7]: more potent
- AGT depletion (shown previously) ([7]; literature): effective in depleting AGT; also recorded: dramatic and rapid depletion of cellular alkyltransferase activity
- survival, BCNU 1 hour after O^6-benzylguanine [8]: significantly increased survival as compared to that of control, BCNU alone, O^6 -benzylguanine alone and O^6 -benzylguanine followed 36 hours later by BCNU
- sensitivity to chloroethylating and methylating anti-tumor drugs [9]: increase the sensitivity
- therapeutic effect, lower pretreatment dose of O^6-benzylguanine ([10]; with BCNU): significantly lesser therapeutic effect
- therapeutic effect, BCNU 1 hour after O^6-benzylguanine [10]: significantly greater effect than was seen with either the same or a higher dose of BCNU alone
- therapeutic effect, BCNU delayed until 36 hours after O^6-benzylguanine [10]: greatly reduced effect that was not significantly different than that produced by control or BCNU alone
- AGT activity of the tumors [11]: undetectable
- time to undetectable tumor AGT activity [11]: ≤ 1 h
- time until which tumor AGT remained depleted [11]: 36 h
- enhancement in the cytotoxic response to alkylating agents [12]: enhancement in the cytotoxic response to chemotherapeutic alkylating agents
